Assay results published in PubChem BioAssay AID1996.
Converted amounts (≈) assume the structure as drawn.

conditions: buffer; pH 7.4; 200.0 µM

Row | SMILES | solubility kinetic [µg/mL]
1 | O=C1N(c2ccccc2)C(=Nc2ccccc2)SC12CC2 | 41.5 (≈ 141 µM)
2 | CCOC(=O)COc1cccc2c(=O)n(CC(N)=O)ccc12 | 24.4 (≈ 80.2 µM)
3 | OCc1nc2ccccc2n1CCOc1ccccc1 | > 40.2
4 | N#C/C(=C/c1ccc(-c2ccccc2[N+](=O)[O-])o1)C(N)=O | 1.7 (≈ 6 µM)
5 | O=C(O)c1ccc(NC(=S)NC(=O)c2cccnc2)cc1 | > 45.2
6 | C=CCNC(=O)c1c(O)c2cccc3c2n(c1=O)CCC3 | < 0.3
7 | CC1CCCC(N2CCN(C(=O)c3ccccc3F)CC2)C1 (stereo not drawn) | > 45.7
8 | Cc1cccc(CSCc2ccc(C(=O)NC3CCCC3)o2)c1 | 25.6 (≈ 77.7 µM)
9 | CC(Oc1ccccc1Cl)C(=O)N1CCCN(C)CC1 (stereo not drawn) | > 44.5
10 | CCCN(CCC)C(=O)Cc1ccc(F)cc1 | 28 (≈ 118 µM)
11 | COc1ccc(NC(=O)CCCn2cnc3ccccc3c2=O)cc1 | > 50.6
12 | Cn1c(=O)c2c(ncn2CC(O)CNc2ccc(F)cc2)n(C)c1=O (stereo not drawn) | > 52.1
13 | O=C(Cn1c(NCCO)nc2ccccc21)Nc1cccc(S(=O)(=O)N2CCCC2)c1 | 63.1 (≈ 142 µM)
14 | COc1cc(C(=O)OCC#N)ccc1OCc1c(C)noc1C | 4 (≈ 12.6 µM)
15 | Cc1ccc(C)c(OCCNc2ncccc2[N+](=O)[O-])c1 | 0.3 (≈ 1.04 µM)
16 | O=C(c1ccc2c(c1)OCO2)N1CCC(Cc2ccccc2)CC1 | 41.6 (≈ 129 µM)
17 | Nc1ccccc1C(=O)NCCN1CCNC1=O | 14.2 (≈ 57.2 µM)
18 | Cc1ncc([N+](=O)[O-])n1CCN1C(=O)c2ccccc2C1=O | 44.3 (≈ 148 µM)
19 | CCCCCCCNc1cccc(C)c1 | < 0.4
20 | CC(=O)Nc1cccc(-c2csc(Nc3ncccn3)n2)c1 | 3.5 (≈ 11.2 µM)
21 | O=C(CS(=O)(=O)c1ccccc1)Nc1nc2ccccc2s1 | > 49.9
22 | Nc1ccccc1S(=O)(=O)NCCCCc1ccccc1 | 28.7 (≈ 94.3 µM)

Row | SMILES | solubility kinetic [µg/mL]
23 | CS(=O)(=O)Nc1ccc(C(=O)Nc2ccc3ccccc3c2)cc1 | < 0.4
24 | O=C(CSc1nnc2ccccn12)c1ccc(Cl)cc1 | > 45.6
25 | O=C(COC(=O)COc1ccccc1)NC1CCS(=O)(=O)C1 (stereo not drawn) | > 49.1
26 | CCNC(=S)Nc1ccc(OC(F)(F)F)cc1 | > 39.6
27 | CCOC(=O)c1ccccc1NC(=O)COC(=O)C1CCCC1 | 3.1 (≈ 9.71 µM)
28 | O=C(Cc1cccs1)NC(Cc1c[nH]c2ccccc12)C(=O)O (stereo not drawn) | > 49.3
29 | NC(=O)COC(=O)c1ccc(-c2ccc(O)cc2)cc1 | 1.1 (≈ 4.05 µM)
30 | Cc1ccc2c(c1)c1c3n2CCNC3CCC1.Cl (stereo not drawn) | > 39.4
31 | CN(CC(=O)Nc1ccc(F)cc1)CC(=O)N1CCCCC1 | > 46.1
32 | CC(C)(C)NS(=O)(=O)c1ccc2[nH]c3c(c2c1)CCCCC3 | 8.8 (≈ 27.5 µM)
33 | O=C(CSc1ccc(F)cc1)Nc1ccc(C2SCCS2)cc1 | < 0.8
34 | CSc1ccccc1NC(=O)Cn1c([N+](=O)[O-])cnc1C | 41.5 (≈ 135 µM)
35 | COc1ccc(-n2c(C)c(C)c3c(NCCN(C)C)ncnc32)cc1 | > 50.9
36 | Cc1ccc(C(=O)NCCCNC(=O)c2ccco2)cc1 | > 42.9
37 | CCn1c(=O)c2sccc2n(Cc2ccc(C)cc2)c1=O | 0.4 (≈ 1.33 µM)
38 | COc1ccc(NC(=O)CSc2ccc3c(c2)OCCO3)cc1 | 46.1 (≈ 139 µM)
39 | COC(=O)Nc1nc(-c2ccc(F)cc2)c(C)s1 | 2.2 (≈ 8.26 µM)
40 | O=C(COc1cccnc1[N+](=O)[O-])NCc1ccc(F)cc1 | > 45.8
41 | O=C(CCc1ccccc1)Oc1ccccc1[N+](=O)[O-] | 5.2 (≈ 19.2 µM)
42 | O=C(Nc1ccc(Nc2ccccc2)cc1)c1ccc(F)cc1 | 0.7 (≈ 2.29 µM)
43 | CC(NC(=O)CN1CCN(c2ccc(Cl)cc2)CC1)c1ccccc1 (stereo not drawn) | 8.8 (≈ 24.6 µM)
44 | O=S(=O)(NCCc1ccncc1)c1ccc(F)cc1 | > 42

Row | SMILES | solubility kinetic [µg/mL]
45 | COC(=O)c1ccc(OCC(=O)NC2CCCCCCC2)cc1 | > 47.9
46 | O=C(Nc1ccc(F)cc1F)N1CCCN(c2ccc(C(F)(F)F)cn2)CC1 | 7.3 (≈ 18.2 µM)
47 | C=CCOC(=O)C1=C(C)NC(=O)NC1c1ccc(O)cc1 (stereo not drawn) | > 43.2
48 | CCc1noc(N)c1C(=O)Nc1ccc(Cl)cc1 | > 39.9
49 | Cc1cc(C)cc(OC(C)C(=O)NCCCn2ccnc2)c1 (stereo not drawn) | 33.4 (≈ 111 µM)
50 | O=C(CSc1ncn[nH]1)NCc1ccc2c(c1)OCO2 | > 43.8
51 | CC(CN1CCCC1)OC(=O)c1cccc(F)c1.Cl (stereo not drawn) | 39.6
52 | NS(=O)(=O)c1ccc(CNC(=O)c2ccc3ccccc3n2)cc1 | 3.9 (≈ 11.4 µM)
53 | c1ccc(-n2cnc3ccccc32)nc1 | 26.3 (≈ 135 µM)
54 | CC(=O)c1c2c3c(cccc3n(C)c1=O)C(=O)c1ccccc1-2 | < 0.6
55 | Fc1ccc2nc3c(nc2c1)CCCC3 | 13.3 (≈ 65.8 µM)
56 | Cc1cc(=O)[nH]c(SCC(=O)Nc2ccc(N3CCCCC3)cc2)n1 | 28.5 (≈ 79.5 µM)
57 | CN1CCC(N(C)C(=S)NCCc2ccccc2)CC1 | > 43.7
58 | O=C(Nc1ccc(OCc2ccccc2)cc1)Nc1cccnc1 | 1.2 (≈ 3.76 µM)
59 | Cc1ccc(NC(=S)N2CCc3[nH]c4ccccc4c3C2)cc1 | 0.8 (≈ 2.49 µM)
60 | O=C(Nc1nc2ccccc2s1)c1ccc([N+](=O)[O-])o1 | < 0.2
61 | CC(=O)c1c(C(=O)O)c2ccccc2[nH]c1=O | 34 (≈ 147 µM)
62 | COc1ccc(CC(=O)OCc2csc(CC(=O)Nc3ccc(C)cc3)n2)cc1 | 4.8 (≈ 11.7 µM)
63 | Cc1nn(CCCC(=O)Nc2cccnc2)c(C)c1[N+](=O)[O-] | > 45.5
64 | O=Cc1c(NCCN2CCOCC2)c2ccccc2[nH]c1=O | > 45.2
65 | O=C(CCC(=O)Nc1cccc(C(F)(F)F)c1)NCC1CCCO1 (stereo not drawn) | > 51.6
66 | COC(=O)c1ccccc1NC(=S)NC(C)=O | > 37.8

Row | SMILES | solubility kinetic [µg/mL]
67 | O=C(O)C1C2CCC(O2)C1C(=O)Nc1cccc(Cl)c1 (stereo not drawn) | 40.6 (≈ 137 µM)
68 | COC(=O)c1ccc(CNC(=O)CCC(=O)N2CCOCC2)cc1 | > 50.2
69 | CC(C)c1ccc(/C=C2\NC(=O)NC2=O)cc1 | 13.9 (≈ 60.4 µM)
70 | Cc1ccnc(NC(=O)c2cc3ccccc3o2)c1 | 12.9 (≈ 51.1 µM)
71 | O=C(Nc1ccc(NC(=O)C2CC2)cc1)c1cccs1 | 3.3 (≈ 11.5 µM)
72 | CC(C)(C)C(=O)/C(C#N)=C/c1cccs1 | 10.9 (≈ 49.7 µM)
73 | Cc1ccc(NC(=O)CN(C)C(=O)c2ccccn2)cc1 | > 42.5
74 | COc1ccc(NC(=O)COc2ccc(Br)cc2)c(OC)c1 | < 0.8
75 | O=C(COC(=O)CCC(=O)c1cccs1)NC1CC1 | > 42.2
76 | O=C(NC1CCCCC1)c1ccc2c(c1)OCCO2 | 34.8 (≈ 133 µM)
77 | O=C(CNC(=O)c1ccco1)N/N=C/c1ccc(O)cc1O | > 45.5
78 | Cc1ccc(S(=O)(=O)n2cnc(C)c2)cc1 | > 35.4
79 | CCn1c(=O)c2ccccc2n(CC(=O)NC2CCCCC2)c1=O | 15.4 (≈ 46.8 µM)
80 | Cc1nc(-c2ccccn2)sc1C(=O)O | > 33
81 | CCCCn1c(=O)c(C(=O)NC(C)c2ccccc2)c(O)c2ccccc21 (stereo not drawn) | < 0.4
82 | CCN(CC)CCOc1ccc(/C(=C(/Cl)c2ccccc2)c2ccccc2)cc1 | 1.5 (≈ 3.69 µM)
83 | Cc1ccnc(NC(=O)CCNS(=O)(=O)c2ccc(C)c(C)c2)c1 | 45.8 (≈ 132 µM)
84 | O=C(NCCC(=O)N1CCCCCCC1)c1ccc(Cl)cc1 | > 48.4
85 | CCCC(=O)NNC(=O)CCC(=O)Nc1ccccc1Cl | > 46.8
86 | Cc1ccc(Nc2ccc([N+](=O)[O-])ccc2=O)cc1 | < 0.3
87 | O=C(COC(=O)C1C2CC3OC(=O)C1C3C2)Nc1ccccc1 (stereo not drawn) | > 47.3
88 | O=S(=O)(Nc1ccc(Br)cn1)c1ccc2ccccc2c1 | 1.3 (≈ 3.58 µM)
